Laboratory results as given in US8663473B2, “Digestion of biosolids in wastewater” (BCR Environmental Corporation, priority 2009, dated 2014).

Assays:
fecal coliform bacteria = assay: Secondary sludge full-scale test: fecal coliform reduction at varying dose rates of chlorine dioxide; format: cell-based; settings: for Fecal coliform: sludge, 10 minutes contact time
Experimental: Treatment of non-digested wastewater sludge with chlorine dioxide allows the material to meet Class B pathogen reduction requirements prior to digestion by reducing the fecal coliform concentrations to levels much lower than the Class B standard (<2,000,000 fecal coliform bacteria) with less than 15 minutes contact time. The resulting biosolids cake has no odor.
In this test, chlorine dioxide was generated on-site, and was injected (at varying concentrations) into a 100 gpm sludge flow passing through a 4 inch diameter pipe. The pipe length was sufficient to allow 10 minutes of contact time between the sludge and the chlorine dioxide prior to dewatering the material.

anaerobic digester = assay: Methane production in anaerobic digestion of chlorine dioxide pre-treated sludge
Experimental: Treatment of non-digested wastewater sludge with chlorine dioxide to solubilized the sludge and make nutrients bio-available and then feeding this material into an established anaerobic digester once the chlorine dioxide residual has been reduced improves gas (methane) production in an anaerobic digester. A generally accepted estimate for methane production at 35° C. is 0.25 kg methane per kg COD consumed. One kmol of methane is equivalent with a mass of 16 kg. Per definition, the COD equivalent of 1 kmol of methane is the mass of the amount of oxygen required for complete oxidation according to the formula: CH4+2O2→CO2+2H2O The mass of the 2 O2 is 2 kmol of oxygen or 64 kg. Thus 64 kg Oxygen Demand is equivalent with 16 kg of methane, or 1 kg of oxygen demand (COD) is equivalent with 16/64=0.25 kg methane.
This increase in soluble COD represents 10-11% of the total COD concentration of the sludge, and represents a 2000% increase in soluble COD. The inventors believe that the higher the s-COD the higher capacity for methane production. The resulting increase in methane production as a result of this enhancement of anaerobic digestion has been measured as a greater than 50% increase utilizing this method, and is expected to be in the range of 100% or more over non-pretreated WAS. […]

[1] = test system: Waste activated sludge (WAS); assay: WAS solubilization by chlorine dioxide: soluble COD, NH4 and PO4 release over contact time; settings: for soluble COD concentration: contact time 24 h, WAS approx. 7 g/L solids
Experimental: Waste activated sludge (WAS) was obtained from a local municipal WWTP which removes cBOD only and uses a pure oxygen system. In order to achieve similar experiment conditions and be consistent with the previous pilot experiment, the solids concentration was adjusted to approximately 7 g/L. Three digesters were set up and treated with chlorine dioxide dosages of 100, 150 and 200 mg/L respectively. The digesters were operated for 24 hours. Samples were taken at time intervals of 10 min, 1 h, 6 h, 12 h and 24 h to represent different contact time.
This confirmed that chlorine dioxide contact time is the key factor for WAS solubilization. The increased soluble COD concentration can be expressed as 10-11% of TCOD which is quite significant. It was also observed that soluble COD concentration at contacting time of 6 hr was approximately 55-66% of the soluble COD at time 24 hrs. […] The increase of soluble COD corresponded to the volatile solids destruction of 4-6% with different chlorine dioxide treatment dosage.
This is considered insignificant. The PO4 increase was much higher and equaled 16 to 28.3 mg P/L after 24 h. Higher phosphorus than nitrogen release can be attributed to the chlorine dioxide treatment which breaks down the cell walls resulting in the release of unbound orthophosphate PO4—P. The nitrogen in the cells is in the form of organic nitrogen (amino acids) and enzymes are required to convert organic nitrogen to ammonia nitrogen. The low pH resulting from the chlorine dioxide treatment may have deactivated the enzyme activity, therefore no/insignificant NH4—N increase was detected.

For `[O][Cl+][O-]` [chlorine dioxide], the “fecal coliform concentrations relative to Class B standard” value (fecal coliform bacteria; non-digested wastewater sludge, less than 15 minutes contact time) was < 2,000,000, the Fecal coliform (fecal coliform bacteria; dose rate ClO2 32 mg/L) was 3.32 × 10^5 MPN/g and the Fecal coliform (fecal coliform bacteria; dose rate ClO2 48 mg/L) was 123,000 MPN/g. For the same compound, the Fecal coliform (fecal coliform bacteria; dose rate ClO2 64 mg/L) was 1,800 MPN/g, the Fecal coliform (fecal coliform bacteria; dose rate ClO2 80 mg/L) was “BDL” and the Fecal coliform (fecal coliform bacteria; dose rate ClO2 96 mg/L) was “BDL”. The Fecal coliform (fecal coliform bacteria; dose rate ClO2 128 mg/L) was “BDL”, the Fecal coliform (fecal coliform bacteria; dose rate ClO2 160 mg/L) was “BDL*” and the “expected increase in methane production” value (anaerobic digester; over non-pretreated WAS, expected) was no less than 100%. For the same compound, the “increase in methane production” value (anaerobic digester; versus non-pretreated WAS) was “greater than 50%”, the NH4 increase ([1]; all chlorine dioxide treatments) was 3-5.2 mg N/L and the “soluble COD concentration” value ([1]; chlorine dioxide dosage 100 mg/L) was 913 mg/L. For the same compound, the “soluble COD concentration” value ([1]; chlorine dioxide dosage 150 mg/L) was 984 mg/L, the “soluble COD concentration” value ([1]; chlorine dioxide dosage 200 mg/L) was 965 mg/L and the volatile solids destruction ([1]; different chlorine dioxide treatment dosages) was 4-6%. The “soluble COD at contact time 6 hr as % of soluble COD at 24 hrs” value ([1]; dosages 100-200 mg/L) was 55-66%, the “increase in soluble COD” value ([1]; dosages 100-200 mg/L, 24 h) was 2000% and the “increased soluble COD expressed as % of total COD (TCOD)” value ([1]; dosages 100-200 mg/L, 24 h) was 10-11%.
